Source: patent US20180237441A1, “Chemical Compounds” (GlaxoSmithKline Intellectual Property (No.2) Limited, priority 2015, published 2018)
pIC50: −log10 of the molar value.

biological target: T1, PERK (Homo sapiens, UniProt Q9NZJ5); test: PERK enzyme assay (HTRF); type: biochemical; settings: 500 μM ATP; at least one experimental run; read-out: PERK Enzyme (500 μM ATP) IC50
T1 sequence (Q9NZJ5 30-1116): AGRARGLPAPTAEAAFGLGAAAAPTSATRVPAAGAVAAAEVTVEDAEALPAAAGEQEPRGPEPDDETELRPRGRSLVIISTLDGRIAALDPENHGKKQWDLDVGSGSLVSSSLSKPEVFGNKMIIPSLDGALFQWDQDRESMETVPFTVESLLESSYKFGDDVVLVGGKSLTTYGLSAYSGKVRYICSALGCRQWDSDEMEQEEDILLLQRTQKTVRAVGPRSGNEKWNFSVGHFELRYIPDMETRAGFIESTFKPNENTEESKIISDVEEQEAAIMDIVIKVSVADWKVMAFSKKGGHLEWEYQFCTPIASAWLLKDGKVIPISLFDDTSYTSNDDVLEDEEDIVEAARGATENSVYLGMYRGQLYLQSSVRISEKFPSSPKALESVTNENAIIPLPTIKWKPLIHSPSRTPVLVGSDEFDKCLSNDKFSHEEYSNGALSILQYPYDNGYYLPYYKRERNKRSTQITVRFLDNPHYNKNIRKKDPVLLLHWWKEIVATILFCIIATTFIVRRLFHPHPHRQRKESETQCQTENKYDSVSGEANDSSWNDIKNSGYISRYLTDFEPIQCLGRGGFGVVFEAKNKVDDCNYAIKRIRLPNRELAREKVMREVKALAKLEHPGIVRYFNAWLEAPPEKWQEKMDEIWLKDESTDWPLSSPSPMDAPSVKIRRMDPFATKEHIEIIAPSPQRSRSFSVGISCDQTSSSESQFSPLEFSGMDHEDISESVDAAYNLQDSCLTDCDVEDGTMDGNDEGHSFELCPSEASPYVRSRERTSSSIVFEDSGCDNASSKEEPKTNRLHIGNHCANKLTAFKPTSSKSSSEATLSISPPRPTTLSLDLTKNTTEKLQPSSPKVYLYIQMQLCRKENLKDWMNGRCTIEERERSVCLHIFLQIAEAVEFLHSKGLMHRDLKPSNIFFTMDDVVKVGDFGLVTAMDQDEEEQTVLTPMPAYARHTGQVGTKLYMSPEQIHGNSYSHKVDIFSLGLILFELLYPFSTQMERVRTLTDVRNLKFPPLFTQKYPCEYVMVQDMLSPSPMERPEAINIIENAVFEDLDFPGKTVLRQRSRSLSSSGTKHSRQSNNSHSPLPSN
Summary of the method: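 GST-PERK (0.75 nM final) pre-incubated 30–60 min with compound (≤1% DMSO) in HEPES pH 7.5/CHAPS/MgCl2/DTT, then 500 μM ATP and 40 nM biotin-eIF2α added for 60 min. EDTA quench; HTRF detection of phospho-eIF2α (Eu anti-rabbit/streptavidin-APC) read after 2 h; IC50 from concentration series.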

Row | pIC50 | SMILES
1 | 6.34 | CCN1C(=O)N(c2ccc(-c3cn(C)c4ncnc(N)c34)c(F)c2)CC1c1cccc(C)c1 (stereo not drawn) [Example 36, 1-(4-(4-amino-7-methyl-7H-pyrrolo[2,3-d]pyrimidin-5-yl)-3-fluorophenyl)-3-ethyl-4-(m-tolyl)imidazolidin-2-one]

same assay, conditions: PERK Enzyme (500 μM ATP) IC50; at least one experimental run; read-out: PERK Activity

Row | SMILES | pIC50
2 | Cn1cc(-c2ccc(N3CC(c4cc(F)ccc4F)CC3=O)cc2F)c2c(N)ncnc21 (stereo not drawn) [Example 31, 1-(4-(4-amino-7-methyl-7H-pyrrolo[2,3-d]pyrimidin-5-yl)-3-fluorophenyl)-4-(2,5-difluorophenyl)pyrrolidin-2-one] | 6.00 to 7.00
3 | Cn1cc(-c2ccc(N3CC(c4ccc(F)cc4F)CC3=O)cc2F)c2c(N)ncnc21 (stereo not drawn) [Example 34, 1-(4-(4-amino-7-methyl-7H-pyrrolo[2,3-d]pyrimidin-5-yl)-3-fluorophenyl)-4-(2,4-difluorophenyl)pyrrolidin-2-one] | 6.00 to 7.00
4 | Cn1cc(-c2ccc(N3CC(c4cccc(Cl)c4F)CC3=O)cc2F)c2c(N)ncnc21 (stereo not drawn) [Example 35, 1-(4-(4-amino-7-methyl-7H-pyrrolo[2,3-d]pyrimidin-5-yl)-3-fluorophenyl)-4-(3-chloro-2-fluorophenyl)pyrrolidin-2-one] | 6.00 to 7.00
5 | CCN1C(=O)N(c2ccc(-c3cn(C)c4ncnc(N)c34)c(F)c2)CC1c1cccc(C)c1 (stereo not drawn) [Example 36, 1-(4-(4-amino-7-methyl-7H-pyrrolo[2,3-d]pyrimidin-5-yl)-3-fluorophenyl)-3-ethyl-4-(m-tolyl)imidazolidin-2-one] | 6.00 to 7.00
6 | CN1C(=O)N(c2ccc(-c3cn(C)c4ncnc(N)c34)cn2)CC1c1cc(F)ccc1F (stereo not drawn) [Example 40, 1-(5-(4-amino-7-methyl-7H-pyrrolo[2,3-d]pyrimidin-5-yl)pyridin-2-yl)-4-(2,5-difluorophenyl)-3-methylimidazolidin-2-one] | 6.00 to 7.00
7 | CCN1C(=O)N(c2ccc(-c3csc4ncnc(N)c34)c(F)c2)CC1c1cc(F)ccc1F (stereo not drawn) [Example 42, 1-(4-(4-aminothieno[2,3-d]pyrimidin-5-yl)-3-fluorophenyl)-4-(2,5-difluorophenyl)-3-ethylimidazolidin-2-one] | 6.00 to 7.00
8 | CCN1C(=O)N(c2ccc(-c3cn(C)c4ncnc(N)c34)c(F)c2)CC1c1cc(C2CC2)ccc1F (stereo not drawn) [Example 48, 1-(4-(4-amino-7-methyl-7H-pyrrolo[2,3-d]pyrimidin-5-yl)-3-fluorophenyl)-4-(5-cyclopropyl-2-fluorophenyl)-3-ethylimidazolidin-2-one] | 6.00 to 7.00
9 | CCN1C(=O)N(c2ccc(-c3cn(C)c4ncnc(N)c34)c(F)c2)CC1c1cccc(C)n1 (stereo not drawn) [Example 50, 1-(4-(4-amino-7-methyl-7H-pyrrolo[2,3-d]pyrimidin-5-yl)-3-fluorophenyl)-3-ethyl-4-(6-methylpyridin-2-yl)imidazolidin-2-one] | 6.00 to 7.00
10 | CN1C(=O)N(c2ccc(-c3cn(C)c4ncnc(N)c34)c(F)c2)CC1c1cc(Cl)ccc1F (stereo not drawn) [Example 53, 1-(4-(4-amino-7-methyl-7H-pyrrolo[2,3-d]pyrimidin-5-yl)-3-fluorophenyl)-4-(5-chloro-2-fluorophenyl)-3-methylimidazolidin-2-one] | 6.00 to 7.00
11 | CCN1C(=O)N(c2ccc(-c3cn(C)c4ncnc(N)c34)c(F)c2)CC1c1cc(F)cc(F)c1F (stereo not drawn) [Example 55, 1-(4-(4-amino-7-methyl-7H-pyrrolo[2,3-d]pyrimidin-5-yl)-3-fluorophenyl)-3-ethyl-4-(2,3,5-trifluorophenyl)imidazolidin-2-one] | 6.00 to 7.00
12 | CN1C(=O)N(c2ccc(-c3cn(C)c4ncnc(N)c34)c(F)c2)CC1c1cc(F)cc(F)c1F (stereo not drawn) [Example 56, 1-(4-(4-amino-7-methyl-7H-pyrrolo[2,3-d]pyrimidin-5-yl)-3-fluorophenyl)-3-methyl-4-(2,3,5-trifluorophenyl)imidazolidin-2-one] | 6.00 to 7.00
13 | CN1C(=O)N(c2ccc(-c3cn(C)c4ncnc(N)c34)c(F)c2)CC1C1CCCCC1 (stereo not drawn) [Example 58, 1-(4-(4-amino-7-methyl-7H-pyrrolo[2,3-d]pyrimidin-5-yl)-3-fluorophenyl)-4-cyclohexyl-3-methylimidazolidin-2-one] | > 7.00
14 | CN1C(=O)N(c2ccc(-c3cn(C)c4ncnc(N)c34)c(F)c2)CC1c1cccnc1 (stereo not drawn) [Example 60, 1-(4-(4-amino-7-methyl-7H-pyrrolo[2,3-d]pyrimidin-5-yl)-3-fluorophenyl)-3-methyl-4-(pyridin-3-yl)imidazolidin-2-one] | > 7.00
15 | COc1ccc(C2CN(c3ccc(-c4cn(C)c5nc(C)nc(N)c45)c(F)c3)C(=O)N2C)cc1 (stereo not drawn) [Example 64, 1-(4-(4-amino-2,7-dimethyl-7H-pyrrolo[2,3-d]pyrimidin-5-yl)-3-fluorophenyl)-4-(4-methoxyphenyl)-3-methylimidazolidin-2-one] | 6.00 to 7.00
16 | CN1C(=O)N(c2ccc(-c3cn(C)c4ncnc(N)c34)c(F)c2)CC1c1ccc(F)cc1 (stereo not drawn) [Example 68, 1-(4-(4-amino-7-methyl-7H-pyrrolo[2,3-d]pyrimidin-5-yl)-3-fluorophenyl)-4-(4-fluorophenyl)-3-methylimidazolidin-2-one] | > 7.00

The next lines start with the values.

Row | pIC50 | SMILES
17 | 6.00 to 7.00 | Cn1cc(-c2ccc(N3CC(c4cc(F)cc(F)c4)CC3=O)nc2)c2c(N)ncnc21 (stereo not drawn) [Example 32, 1-(5-(4-amino-7-methyl-7H-pyrrolo[2,3-d]pyrimidin-5-yl)pyridin-2-yl)-4-(3,5-difluorophenyl)pyrrolidin-2-one]
18 | 6.00 to 7.00 | Cc1cccc(C2CC(=O)N(c3ccc(-c4cn(C)c5ncnc(N)c45)c(F)c3)C2)n1 (stereo not drawn) [Example 33, 1-(4-(4-amino-7-methyl-7H-pyrrolo[2,3-d]pyrimidin-5-yl)-3-fluorophenyl)-4-(6-methylpyridin-2-yl)pyrrolidin-2-one]
19 | 6.00 to 7.00 | Cc1cccc(C2CN(c3ccc(-c4cn(C)c5ncnc(N)c45)c(F)c3)C(=O)N2C)c1 (stereo not drawn) [Example 39, 1-(4-(4-amino-7-methyl-7H-pyrrolo[2,3-d]pyrimidin-5-yl)-3-fluorophenyl)-3-methyl-4-(m-tolyl)imidazolidin-2-one]
20 | 6.00 to 7.00 | CCN1C(=O)N(c2ccc(-c3cn(C)c4ncnc(N)c34)cn2)CC1c1cc(F)ccc1F (stereo not drawn) [Example 41, 1-(5-(4-amino-7-methyl-7H-pyrrolo[2,3-d]pyrimidin-5-yl)pyridin-2-yl)-4-(2,5-difluorophenyl)-3-ethylimidazolidin-2-one]
21 | > 7.00 | CC(C)n1cc(-c2ccc(N3CC(c4cc(F)ccc4F)N(C)C3=O)cc2F)c2c(N)ncnc21 (stereo not drawn) [Example 43, 1-(4-(4-amino-7-isopropyl-7H-pyrrolo[2,3-d]pyrimidin-5-yl)-3-fluorophenyl)-4-(2,5-difluorophenyl)-3-methylimidazolidin-2-one]
22 | 6.00 to 7.00 | CN1C(=O)N(c2ccc(-c3cn(C)c4ncnc(N)c34)c(F)c2)CC1c1cc(C2CC2)ccc1F (stereo not drawn) [Example 49, 1-(4-(4-amino-7-methyl-7H-pyrrolo[2,3-d]pyrimidin-5-yl)-3-fluorophenyl)-4-(5-cyclopropyl-2-fluorophenyl)-3-methylimidazolidin-2-one]
23 | > 7.00 | CCN1C(=O)N(c2ccc(-c3cn(C)c4ncnc(N)c34)c(F)c2)CC1c1ccc(F)cc1 (stereo not drawn) [Example 57]
24 | 6.00 to 7.00 | Cc1nc(N)c2c(-c3ccc(N4CC(c5ccc(F)cc5F)N(C)C4=O)cc3F)cn(C)c2n1 (stereo not drawn) [Example 65, 1-(4-(4-amino-2,7-dimethyl-7H-pyrrolo[2,3-d]pyrimidin-5-yl)-3-fluorophenyl)-4-(2,4-difluorophenyl)-3-methylimidazolidin-2-one]
25 | > 7.00 | Cc1nc(N)c2c(-c3ccc(N4CC(c5ccc(F)cc5)N(C)C4=O)cc3F)cn(C)c2n1 (stereo not drawn) [Example 69, 1-(4-(4-amino-2,7-dimethyl-7H-pyrrolo[2,3-d]pynmidin-5-yl)-3-fluorophenyl)-4-(4-fluorophenyl)-3-methylimidazolidin-2-one]
26 | 6.00 to 7.00 | Cc1nc(N)c2c(-c3ccc(N4CC(c5c(F)ccc(F)c5F)N(C)C4=O)cc3F)cn(C)c2n1 (stereo not drawn) [Example 72, 1-(4-(4-amino-2,7-dimethyl-7H-pyrrolo[2,3-d]pyrimidin-5-yl)-3-fluorophenyl)-3-methyl-4-(2,3,6-trifluorophenyl)imidazolidin-2-one]
27 | 6.00 to 7.00 | CN1C(=O)N(c2ccc(-c3cn(C)c4ncnc(N)c34)c(F)c2)CC1c1cccc(OC(F)F)c1 (stereo not drawn) [Example 73, 1-(4-(4-amino-7-methyl-7H-pyrrolo[2,3-d]pyrimidin-5-yl)-3-fluorophenyl)-4-(3-(difluoromethoxy)phenyl)-3-methylimidazolidin-2-one]
